Measured values taken from ChEMBL document CHEMBL4680334, “Fluorescent image-based high-content screening of extracts of natural resources for cell cycle inhibitors and identification of a new sesquiterpene quinone from the sponge, Dactylospongia metachromia” (Bioorg Med Chem, 2021).
pIC50: −log10 of the molar value. Active and inactive are the calls of the source. The rule behind the calls is not given here.

How the values were obtained:
HeLa [1] = experiment: Cytotoxicity against human HeLa cells harboring Fucci2 assessed as reduction in cell growth incubated for 3 days by MTT assay; type: functional, cell-based; conditions: 72 h
HeLa [2] = experiment: Inhibition of cell cycle progression in human HeLa cells harboring Fucci2 assessed as cell cycle arrest at S phase at 2 times of IC50 incubated for 2 days by fluorescence microscopic analysis; type: functional, cell-based; conditions: time 2.0 day
HeLa [3] = experiment: Inhibition of cell cycle progression in human HeLa cells harboring Fucci2 assessed as cell cycle arrest at G2/M phase at 2 times of IC50 incubated for 2 days by fluorescence microscopic analysis; type: functional, cell-based; conditions: time 2.0 day
HeLa [4] = experiment: Induction of cell cycle arrest in human HeLa cells assessed as accumulation at G1 phase at 15 uM incubated for 1 day by propidium iodide staining based flow cytometry analysis (reference value: 59.7 %); type: functional
HeLa [5] = experiment: Induction of cell cycle arrest in human HeLa cells assessed as accumulation at S phase at 15 uM incubated for 1 day by propidium iodide staining based flow cytometry analysis (reference value: 26.1 %); type: functional
HeLa [6] = experiment: Induction of cell cycle arrest in human HeLa cells assessed as accumulation in G2/M phase at 15 uM incubated for 1 day by propidium iodide staining based flow cytometry analysis (reference value: 14.2 %); type: functional

Row | Compound | pIC50 (HeLa [1]) | inhibition (HeLa [2]) | inhibition (HeLa [3]) | Activity (HeLa [4]) [%] | Activity (HeLa [5]) [%] | Activity (HeLa [6]) [%]
1 | COC(=O)c1ccc(O)c(C[C@]2(C)[C@@H](C)CC[C@]3(C)C(C)=CCC[C@@H]23)c1 | 4.89 | inactive | inactive | – | – | –
2 | CC1=CCC[C@H]2[C@](C)(CC3=C(O)C(=O)C=C(N)C3=O)[C@@H](C)CC[C@]12C | 4.74 | Active | Active | 27.2 | 46.5 | 26.3
3 | CC1=CCC[C@H]2[C@](C)(CC3=C(O)C(=O)C=C(NCCc4ccccc4)C3=O)[C@@H](C)CC[C@]12C [NAKIJIQUINONE Q] | 4.44 | Active | Active | – | – | –
4 | CC1=CCC[C@H]2[C@](C)(CC3=C(O)C(=O)C=C(NCCC[S+](C)[O-])C3=O)[C@@H](C)CC[C@]12C (stereo partly drawn) [NAKIJIQUINONE I] | 4.80 | Active | Active | – | – | –
5 | CC1=CCC[C@H]2[C@](C)(CC3=C(O)C(=O)C=C(NCCC(C)C)C3=O)[C@@H](C)CC[C@]12C [NAKIJIQUINONE N] | 4.52 | Active | Active | – | – | –
